In ChEMBL document CHEMBL1201862, “PubChem BioAssay data set” (2004):
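Compound exposure: 48 hours, 5 concentrations, 96-well plates. GI50 is the concentration that inhibits growth by half.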 Active and inactive are the calls of the source. No stated cut-off is given here; in the data, active = GI50 up to about 1.1 µM and inactive = higher.

Experiments:
Assay in all cases: inhibition of tumour cell growth, NCI panel, 48 h
[1] = test system: SK-OV-3
[2] = test system: PC-3
[3] = test system: COLO 205
[4] = test system: K562
[5] = test system: MDA-N
[6] = test system: BT-549
[7] = test system: OVCAR-8
[8] = test system: MDA-MB-231
[9] = test system: KM12
[10] = test system: MOLT-4
[11] = test system: SF-268
[12] = test system: NCI/ADR-RES
[13] = test system: Malme-3M
[14] = test system: LOX IMVI
[15] = test system: ACHN
[16] = test system: HT-29
[17] = test system: SK-MEL-5
[18] = test system: TK-10
[19] = test system: HCC 2998
[20] = test system: RPMI-8226
[21] = test system: SK-MEL-2
[22] = test system: MCF7
[23] = test system: HOP-62
[24] = test system: SR
[25] = test system: SNB-75
[26] = test system: SK-MEL-28
[27] = test system: UO-31
[28] = test system: HOP-92
[29] = test system: IGROV-1
[30] = test system: T47D
[31] = test system: MDA-MB-435
[32] = test system: SF-539
[33] = test system: HCT-15
[34] = test system: SN12C
[35] = test system: UACC-257
[36] = test system: OVCAR-4
[37] = test system: NCI-H460
[38] = test system: M14
[39] = test system: A498
[40] = test system: U-251
[41] = test system: OVCAR-5
[42] = test system: RXF 393
[43] = test system: DU-145
[44] = test system: SF-295
[45] = test system: UACC-62
[46] = test system: 786-0
[47] = test system: Hs-578T
[48] = test system: EKVX
[49] = test system: A549
[50] = test system: NCI-H23
[51] = test system: NCI-H522
[52] = test system: CCRF-CEM
[53] = test system: SNB-19
[54] = test system: SW-620
[55] = test system: NCI-H226
[56] = test system: OVCAR-3
[57] = test system: HL-60
[58] = test system: CAKI-1
[59] = test system: HCT-116

CN(C)CCn1c(=O)c2ccc3c4c(nn3CCN(C)C)c3cc(N)ccc3n(c1=O)c24
GI50 [1]: < 21.1 nM (active)
GI50 [2]: < 15.3 nM (active)
GI50 [3]: < 23.9 nM (active)
GI50 [4]: < 13.3 nM (active)
GI50 [5]: < 23.9 nM (active)
GI50 [6]: 127 nM (active)
GI50 [7]: 23.8 nM (active)
GI50 [8]: < 31.3 nM (active)
GI50 [9]: < 19.6 nM (active)
GI50 [10]: < 11 nM (active)
GI50 [11]: < 10 nM (active)
GI50 [12]: 34.9 nM (active)
GI50 [13]: 66.7 nM (active)
GI50 [14]: 15.4 nM (active)
GI50 [15]: < 16.1 nM (active)
GI50 [16]: < 10 nM (active)
GI50 [17]: 51.6 nM (active)
GI50 [18]: 51.3 nM (active)
GI50 [19]: < 10 nM (active)
GI50 [20]: < 10 nM (active)
GI50 [21]: < 29.2 nM (active)
GI50 [22]: < 20.7 nM (active)
GI50 [23]: < 10 nM (active)
GI50 [24]: < 10.3 nM (active)
GI50 [25]: < 10 nM (active)
GI50 [26]: 64.6 nM (active)
GI50 [27]: < 13.2 nM (active)
GI50 [28]: 191 nM (active)
GI50 [29]: < 15 nM (active)
GI50 [30]: 31.2 nM (active)
GI50 [31]: < 20.9 nM (active)
GI50 [32]: 29.1 nM (active)
GI50 [33]: < 16.9 nM
GI50 [34]: < 19.9 nM (active)
GI50 [35]: 118 nM (active)
GI50 [36]: 16.5 nM (active)
GI50 [37]: < 10 nM (active)
GI50 [38]: 25.9 nM (active)
GI50 [39]: 61 nM (active)
GI50 [40]: < 11.1 nM (active)
GI50 [41]: < 27 nM (active)
GI50 [42]: < 32 nM (active)
GI50 [43]: < 16.7 nM (active)
GI50 [44]: 14.5 nM (active)
GI50 [45]: 90.2 nM (active)
GI50 [46]: < 10 nM (active)
GI50 [47]: 91 nM (active)
GI50 [48]: 50.7 nM (active)
GI50 [49]: < 10 nM (active)
GI50 [50]: < 10 nM (active)
GI50 [51]: 20 nM (active)
GI50 [52]: < 12.6 nM (active)
GI50 [53]: < 11.1 nM (active)
GI50 [54]: < 14.8 nM (active)
GI50 [55]: 79.1 nM (active)
GI50 [56]: < 15.1 nM (active)
GI50 [57]: 27.9 nM (active)
GI50 [58]: 74.1 nM (active)
GI50 [59]: < 14.5 nM (active)
